{"source": "patent US20190308988A1", "about": "“OPIOID RECEPTOR ANTAGONIST PRODRUGS” (Nirsum Laboratories, Inc., priority 2017, published 2019)", "key": {"[1]": {"assay": "Plasma stability, human plasma (HPLC-MS)", "format": "in vitro ADME", "conditions": "2 μM, 37° C., 15 min", "description": "Plasma Stability Determination of the Test Compounds in Rat, Dog, Cynomolgus Monkey and human plasma is performed using HPLC-MS. For rat, incubations are carried out in 96-well polypropylene plates in 5 aliquots of 70 μL each (one for each time point). […] Five time points are analyzed (0, 15, 120, 480 and 1440 min). […] All incubations are performed in duplicates. The samples are analyzed by HPLC-MS. The percentage of parent compound remaining after incubation in plasma is determined."}, "[2]": {"assay": "Dog body weights and clinical observation (Tables 66-86)", "format": "in vivo, Beagle dogs", "conditions": "48 mg/kg Shallow IM, dog D1002, 1128 hr", "description": "Weight monitoring was done every week.\nThe dose formulation (concentration—400 mg base equivalents/ml in sesame oil+1% benzyl alcohol, unless otherwise specified) was administered via deep intramuscularly (unless otherwise specified). The injection vehicle was also dosed via deep intramuscular route (unless otherwise specified) on contralateral site of each animal at study initiation. The animals were sedated with Propofol at 6 mg/kg via IV administration. Following sedation hair was carefully removed from around the injection site and the area gently cleaned. Care will be taken to avoid irritating skin during shaving and cleaning the injection site. Then dogs will be dosed with deep IM administration. At least 2.5 cm depth from the surface into the central aspect of the quadriceps or biceps femoris muscle, by angling the needle toward the femur. If the needle hits the femur, simply draws back slightly and then inject. The dose volume will be determined by the animals' body weight collected on the morning of dosing day. For repeated administration, the injection sites may be rotated to minimize tissue injury."}}}
{"compound": "C=C1CC[C@@]2(O)C3Cc4ccc(OCOC(=O)OCCCCCCCCCCCC)c5c4[C@@]2(CCN3CC2CC2)[C@H]1O5", "note": "[Compound 24, (((4aS,7aS,12bS)-3-(cyclopropylmethyl)-4a-hydroxy-7-methylene-2,3,4,4a,5,6,7,7a-octahydro-1H-4,12-methanobenzofuro[3,2-e]isoquinolin-9-yl)oxy)methyl dodecyl carbonate]", "values": [{"measurement": "% remaining at time point in minutes, 15 min", "setting": "[1]", "result": 94, "unit": "%"}, {"measurement": "BT", "setting": "[2]", "result": "BT: 38.8 °C"}]}
